Consider ten compounds from ChEMBL document CHEMBL5291721, “A preclinical secondary pharmacology resource illuminates target-adverse drug reaction associations of marketed drugs” (Nat Commun, 2023).

One assay concerns the target Cannabinoid receptor 1 (Homo sapiens, UniProt P21554). Type of assay: functional, cell-based.
A further assay deals with Histamine H3 receptor (Homo sapiens, UniProt Q9Y5N1).
The target in a further assay is Motilin receptor (Homo sapiens, UniProt O43193).
Assay [1] addresses T1, Muscarinic acetylcholine receptor M2 (Homo sapiens, UniProt P08172).
T1 sequence (P08172 whole entry): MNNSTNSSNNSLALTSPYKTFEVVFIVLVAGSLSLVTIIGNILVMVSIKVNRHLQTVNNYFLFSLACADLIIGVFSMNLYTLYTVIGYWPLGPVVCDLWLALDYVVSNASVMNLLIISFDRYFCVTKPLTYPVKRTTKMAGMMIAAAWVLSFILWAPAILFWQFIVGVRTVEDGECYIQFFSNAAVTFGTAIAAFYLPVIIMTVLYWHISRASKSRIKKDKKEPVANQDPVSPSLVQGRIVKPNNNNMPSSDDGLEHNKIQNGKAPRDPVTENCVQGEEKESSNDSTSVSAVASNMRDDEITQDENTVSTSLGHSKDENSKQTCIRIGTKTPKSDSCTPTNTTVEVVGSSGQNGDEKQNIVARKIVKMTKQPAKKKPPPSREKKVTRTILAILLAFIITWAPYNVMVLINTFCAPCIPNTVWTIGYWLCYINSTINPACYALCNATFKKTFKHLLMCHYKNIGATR
Type of assay: functional, cell-based.

Assay [2] deals with T2, 5-hydroxytryptamine receptor 3A (Homo sapiens, UniProt P46098).
T2 sequence (P46098 whole entry): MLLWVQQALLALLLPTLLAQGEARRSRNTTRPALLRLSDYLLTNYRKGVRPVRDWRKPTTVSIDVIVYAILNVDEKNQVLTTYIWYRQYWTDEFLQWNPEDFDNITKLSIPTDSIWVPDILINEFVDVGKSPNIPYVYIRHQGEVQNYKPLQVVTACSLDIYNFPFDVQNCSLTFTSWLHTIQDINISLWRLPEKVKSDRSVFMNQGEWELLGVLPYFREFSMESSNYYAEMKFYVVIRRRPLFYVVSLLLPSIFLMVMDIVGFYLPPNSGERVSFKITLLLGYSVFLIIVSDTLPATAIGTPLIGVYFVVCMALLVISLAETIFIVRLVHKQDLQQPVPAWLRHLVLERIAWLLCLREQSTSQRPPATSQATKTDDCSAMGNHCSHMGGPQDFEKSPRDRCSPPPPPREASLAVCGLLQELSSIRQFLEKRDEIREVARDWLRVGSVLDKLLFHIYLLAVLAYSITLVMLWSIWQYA
Type of assay: functional.

The target of assay [3] is Glutamate receptor ionotropic, NMDA 1 (Rattus norvegicus, UniProt P35439).
The target in assay [4] is Gamma-aminobutyric acid receptor subunit alpha-1 (Rattus norvegicus, UniProt P62813).
Assay [5] concerns the target Neuronal acetylcholine receptor subunit alpha-4 (Homo sapiens, UniProt P43681).
Another assay addresses T3, Endothelin-1 receptor (Homo sapiens, UniProt P25101).
T3 sequence (P25101 whole entry): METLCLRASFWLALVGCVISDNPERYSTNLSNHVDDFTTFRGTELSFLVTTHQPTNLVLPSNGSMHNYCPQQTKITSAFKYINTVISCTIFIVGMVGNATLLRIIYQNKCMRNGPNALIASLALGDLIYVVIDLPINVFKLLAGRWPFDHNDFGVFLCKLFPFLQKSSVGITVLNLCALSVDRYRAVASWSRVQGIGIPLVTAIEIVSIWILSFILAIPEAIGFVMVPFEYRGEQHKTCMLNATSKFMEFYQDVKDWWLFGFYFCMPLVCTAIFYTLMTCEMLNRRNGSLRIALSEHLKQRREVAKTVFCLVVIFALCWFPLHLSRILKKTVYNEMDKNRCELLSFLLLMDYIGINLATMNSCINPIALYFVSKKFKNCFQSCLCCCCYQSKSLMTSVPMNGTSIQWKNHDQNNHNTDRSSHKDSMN
Also: assay procedure not described here.

Sequence of Histamine H3 receptor (Q9Y5N1 whole entry): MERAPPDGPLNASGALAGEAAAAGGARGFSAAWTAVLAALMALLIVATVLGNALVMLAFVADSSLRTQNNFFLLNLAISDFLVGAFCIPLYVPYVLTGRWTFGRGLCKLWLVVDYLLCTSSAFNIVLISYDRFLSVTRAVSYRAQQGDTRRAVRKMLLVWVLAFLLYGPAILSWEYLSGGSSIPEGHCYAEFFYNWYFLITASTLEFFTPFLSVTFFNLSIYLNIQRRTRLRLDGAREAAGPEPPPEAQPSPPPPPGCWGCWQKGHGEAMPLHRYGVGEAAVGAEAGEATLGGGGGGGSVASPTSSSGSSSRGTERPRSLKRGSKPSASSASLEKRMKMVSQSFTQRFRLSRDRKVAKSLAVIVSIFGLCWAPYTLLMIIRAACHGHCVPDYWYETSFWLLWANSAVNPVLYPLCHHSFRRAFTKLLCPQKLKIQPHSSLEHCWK
Sequence of Neuronal acetylcholine receptor subunit alpha-4 (P43681 whole entry): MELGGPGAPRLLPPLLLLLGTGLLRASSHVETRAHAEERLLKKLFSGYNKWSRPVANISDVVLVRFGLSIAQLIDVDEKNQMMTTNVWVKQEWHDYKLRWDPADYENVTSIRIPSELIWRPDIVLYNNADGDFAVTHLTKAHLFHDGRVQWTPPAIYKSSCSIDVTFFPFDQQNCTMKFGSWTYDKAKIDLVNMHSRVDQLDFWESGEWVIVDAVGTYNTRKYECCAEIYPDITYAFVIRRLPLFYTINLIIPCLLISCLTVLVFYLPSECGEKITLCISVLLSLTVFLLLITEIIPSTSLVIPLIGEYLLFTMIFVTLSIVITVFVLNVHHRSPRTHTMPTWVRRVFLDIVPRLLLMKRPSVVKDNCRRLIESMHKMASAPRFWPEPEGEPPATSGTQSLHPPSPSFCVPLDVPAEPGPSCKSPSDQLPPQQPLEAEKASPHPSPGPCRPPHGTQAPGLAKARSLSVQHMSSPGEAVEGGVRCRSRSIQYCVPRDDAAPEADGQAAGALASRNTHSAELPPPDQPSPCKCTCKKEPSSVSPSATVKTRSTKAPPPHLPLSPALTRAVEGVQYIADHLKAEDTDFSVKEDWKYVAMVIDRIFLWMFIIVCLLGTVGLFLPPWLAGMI
Sequence of Cannabinoid receptor 1 (P21554 whole entry): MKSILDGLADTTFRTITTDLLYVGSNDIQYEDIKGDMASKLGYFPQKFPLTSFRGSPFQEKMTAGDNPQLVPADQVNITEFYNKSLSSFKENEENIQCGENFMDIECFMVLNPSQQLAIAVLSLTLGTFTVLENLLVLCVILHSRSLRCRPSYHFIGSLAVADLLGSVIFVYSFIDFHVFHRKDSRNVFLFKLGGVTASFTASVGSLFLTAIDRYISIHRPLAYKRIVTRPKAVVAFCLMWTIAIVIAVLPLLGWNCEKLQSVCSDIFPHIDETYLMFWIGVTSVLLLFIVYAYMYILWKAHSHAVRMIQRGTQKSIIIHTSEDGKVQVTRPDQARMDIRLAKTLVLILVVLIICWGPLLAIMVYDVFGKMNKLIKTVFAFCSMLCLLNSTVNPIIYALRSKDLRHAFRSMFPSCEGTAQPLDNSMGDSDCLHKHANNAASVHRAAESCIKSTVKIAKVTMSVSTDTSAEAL
Sequence of Gamma-aminobutyric acid receptor subunit alpha-1 (P62813 whole entry): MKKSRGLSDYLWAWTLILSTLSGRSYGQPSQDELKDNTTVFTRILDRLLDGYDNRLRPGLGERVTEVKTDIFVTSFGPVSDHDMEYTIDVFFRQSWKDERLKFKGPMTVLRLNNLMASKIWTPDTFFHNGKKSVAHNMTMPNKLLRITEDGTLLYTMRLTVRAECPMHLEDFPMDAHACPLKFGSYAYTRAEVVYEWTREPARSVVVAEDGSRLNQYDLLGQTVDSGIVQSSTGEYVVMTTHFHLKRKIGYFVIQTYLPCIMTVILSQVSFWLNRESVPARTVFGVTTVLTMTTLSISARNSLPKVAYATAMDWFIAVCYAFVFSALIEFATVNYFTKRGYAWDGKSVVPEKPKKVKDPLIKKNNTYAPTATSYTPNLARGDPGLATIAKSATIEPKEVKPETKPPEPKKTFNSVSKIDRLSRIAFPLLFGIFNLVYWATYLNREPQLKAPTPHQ
Sequence of Motilin receptor (O43193 whole entry): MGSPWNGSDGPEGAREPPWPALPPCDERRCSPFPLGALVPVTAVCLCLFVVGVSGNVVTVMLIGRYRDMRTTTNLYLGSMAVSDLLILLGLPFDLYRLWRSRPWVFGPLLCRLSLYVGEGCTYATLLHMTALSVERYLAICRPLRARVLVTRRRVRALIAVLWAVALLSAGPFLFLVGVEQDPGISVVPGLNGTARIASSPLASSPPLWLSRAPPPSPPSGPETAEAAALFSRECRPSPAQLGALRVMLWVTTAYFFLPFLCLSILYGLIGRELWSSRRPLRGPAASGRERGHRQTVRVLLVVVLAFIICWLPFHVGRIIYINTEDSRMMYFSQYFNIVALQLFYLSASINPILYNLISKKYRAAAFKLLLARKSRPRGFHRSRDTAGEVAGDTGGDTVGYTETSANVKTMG

In the case of `CC(=O)Nc1ccc(CC(=O)O)cc1` [ACTARIT], the AC50 (on Cannabinoid receptor 1; on Histamine H3 receptor; at Motilin receptor; in assay [1]; in assay [2]; in [3]) was greater than 30 µM in each case. For the same compound, the AC50 (in [4]; in assay [5]; at Endothelin-1 receptor) was greater than 30 µM each time.

With `CC(C(=O)O)c1ccc2oc(-c3ccc(Cl)cc3)nc2c1` (stereo not drawn) [BENOXAPROFEN], the half-maximal activity concentration (AC50) (on Cannabinoid receptor 1; at Histamine H3 receptor; on Motilin receptor; in assay [1]; in [2]; in assay [3]) was greater than 30 µM each time. Moreover, the AC50 (in assay [4]; in assay [5]; on Endothelin-1 receptor) was greater than 30 µM throughout.

Take `CC=CC1=C(C(=O)O)N2C(=O)[C@@H](NC(=O)[C@H](N)c3ccc(O)cc3)[C@H]2SC1` [CEFPROZIL]: the AC50 (on Histamine H3 receptor; at Motilin receptor; in [1]; in [2]; in [3]; in [4]) was greater than 30 µM each time. Moreover, the half-maximal activity concentration (AC50) in assay [5] is greater than 30 µM.

For `CNC[C@H](O)c1ccc(O)c(O)c1` [EPINEPHRINE], the AC50 (on Cannabinoid receptor 1; on Histamine H3 receptor; on Motilin receptor; in [1]; in assay [2]; in assay [5]) was greater than 30 µM throughout. The compound also gave an AC50 on Endothelin-1 receptor greater than 30 µM.

On to `CCCCCCCN(CC)CCCC(O)c1ccc(NS(C)(=O)=O)cc1` (stereo not drawn) [IBUTILIDE], for which the AC50 (at Histamine H3 receptor; on Motilin receptor; in assay [1]; in assay [2]; in assay [3]; in assay [4]) was greater than 30 µM throughout. Moreover, the AC50 (in [5]; at Endothelin-1 receptor) was greater than 30 µM in each case.

For `CNC(=C[N+](=O)[O-])NCCSCc1csc(CN(C)C)n1` [NIZATIDINE], the half-maximal activity concentration (AC50) at Motilin receptor was greater than 10 µM; in [1], greater than 10 µM; in assay [2], greater than 30 µM; in [3] it was greater than 10 µM; in [4], greater than 10 µM; in assay [5], greater than 10 µM.

Consider `CCCc1cc(=O)[nH]c(=S)[nH]1` [PROPYLTHIOURACIL], for which the AC50 at Histamine H3 receptor is greater than 10 µM; on Motilin receptor, greater than 10 µM; in assay [1], greater than 10 µM; in assay [2], greater than 30 µM; in [3], greater than 10 µM; in assay [4], greater than 10 µM. The compound further yielded a half-maximal activity concentration (AC50) in [5] greater than 10 µM.

Regarding `Cn1cc(C(=O)[C@@H]2CCc3nc[nH]c3C2)c2ccccc21` [RAMOSETRON], the AC50 on Cannabinoid receptor 1 is greater than 30 µM; on Histamine H3 receptor, greater than 30 µM; at Motilin receptor it was greater than 30 µM; in [1] it was greater than 30 µM; in [2], 0.0004 µM; in [3] it was greater than 30 µM. In addition, the AC50 (in assay [4]; in assay [5]; on Endothelin-1 receptor) was greater than 30 µM each time.

As for `CN(CCOc1ccc(CC2SC(=O)NC2=O)cc1)c1ccccn1` (stereo not drawn) [ROSIGLITAZONE], the AC50 (at Cannabinoid receptor 1; on Histamine H3 receptor; on Motilin receptor; in assay [1]; in [2]; in assay [3]) was greater than 30 µM each time. Also, the AC50 (in assay [4]; in assay [5]; on Endothelin-1 receptor) was greater than 30 µM throughout.

On to `COc1cc(C(=O)NS(=O)(=O)c2ccccc2C)ccc1Cc1cn(C)c2ccc(NC(=O)OC3CCCC3)cc12` [ZAFIRLUKAST], for which the AC50 at Cannabinoid receptor 1 was greater than 30 µM; on Histamine H3 receptor, greater than 10 µM; at Motilin receptor it was greater than 10 µM; in assay [2], greater than 30 µM; in assay [3], greater than 10 µM; in [4] it was greater than 10 µM. This compound had a concentration at half-maximal activity (AC50) in assay [5] greater than 10 µM.

Broadly, the AC50 is the midpoint of the concentration-response curve, whichever way the signal moves. Read a high AC50 as activity only at high concentration.
